Tests used:
healthy adult subjects = experiment: Phase 1 multiple-dose study, serum uric acid after once daily oral dosing for 10 days; format: in vivo, human; conditions: all dose levels tested, FIG. 3 and Table 1
Experimental: Methods used in relation to FIG. 3 showing reduction in serum uric acid in subjects over time following once daily dosing with arhalofenate were as follows.
A single centre Phase 1, placebo- and positive-controlled, double-blind, randomized, dose escalation study was conducted to evaluate the multiple-dose pharmacokinetics (PK) of (−)-halofenate administered as a daily dose orally for 10 days, at the protocol-specified doses in healthy adult subjects. A total of 119 subjects completed study treatment according to protocol: 6 subjects received (−)-halofenate 100 mg/day for 10 days; 6 subjects received (−)-halofenate 200 mg/day for 10 days; 9 subjects received (−)-halofenate 400 mg/day for 10 days; 20 subjects received (−)-halofenate 600 mg/day for 10 days; 10 subjects received (−)-halofenate 600 mg Enteric Coated (EC)/day for 10 days; 9 subjects received (−)-halofenate 800 mg EC/day for 10 days; 10 subjects received (−)-halofenate 1000 mg EC/day for 10 days; 24 subjects received placebo treatment daily for 10 days; and 25 subjects received naproxen 500 mg b.i.d. monotherapy for 7 days. In this study, serum uric acid was measured at screening and on Days 1, 3, 5, 7, 9, 14 and 21.

[1] = system: gout patients with hyperuricemia; experiment: Randomized, double-blind, placebo-controlled 4-week monotherapy trial: sUA reduction and flare prevention; format: in vivo, human; conditions: for Flares considered moderate in severity by the investigator / Patients who reported flare during the Treatment Phase / Patients with flare that required medication (additional colchicine and/or NSAIDs) / Mean duration of Flares Requiring Treatment / Mean duration of Total flares / Mean sUA absolute change from baseline (Day 1) / Mean sUA percent change from baseline (Day 1): 4 weeks; for Mean sUA absolute change from baseline (Day 1) / Mean sUA percent change from baseline (Day 1): PP population; for Mean sUA percent change from baseline (Day 1): colchicine 0.6 mg background
Experimental: Study Design: This was a randomized, double-blind, placebo-controlled study of 400 mg and 600 mg arhalofenate administered daily for 4 weeks as monotherapy in patients with gout (per criteria of the American Rheumatism Association) with hyperuricemia. Patients using urate lowering therapy (ULT) must have been willing to discontinue treatment for the duration of the study. Patients with a recent history of an acute gout flare must have been symptom free for at least 1 week prior to screening. Upon successful completion of screening, patients entered into a minimum 3-week Run-in/Stabilization Phase. During this phase, patients on existing ULT were asked to temporarily discontinue their current therapy. Patients also started colchicine 0.6 mg once daily until the final study visit as prophylaxis to prevent potential gout flares. Patient who met final eligibility criteria were randomized (1:1:1) into the Treatment Phase to receive Placebo, arhalofenate 400 mg, or arhalofenate 600 mg. Each randomized patient took double-blind study medication daily for a period of four weeks beginning at Day 1 (Visit 3). Patients returned to the study site after 2 weeks at Visit 4 and then weekly at Visits 5 and 6 (Weeks 3 and 4). A Follow-up Visit (Visit 7) took place 2 weeks after the last dose of study medication. […] Patients with a recent history of an acute gout flare must have been symptom free for at least 1 week prior to both screening and randomization. Criteria for Evaluation: The primary efficacy analysis compared the percentage change in sUA from baseline to end of treatment between the treatment groups. In addition, gout flares were captured as special interest event and the incidence of gout flares (all flares and flares that required treatment), severity (as assessed either mild, moderate, or severe by the Principal Investigator), and duration (days) were compared between treatment groups.

murine 3T3-L1 adipocytes = experiment: Suppression of uric-acid induced inflammation in vitro; format: cell-based; conditions: 50-150 μM, uric acid 5 or 15 mg/dL, 3 or 7 days
Experimental: Differentiated murine 3T3-L1 adipocytes are cultured in vitro in 24 well plates. To the culture medium (−)-halofenic acid is added at a final concentration of 50-150 μM prior to the addition of uric acid at 5 mg/dL or 15 mg/dL and the culture continued for 3 or 7 days. A parallel culture of cells is conducted in the presence of a vehicle such as dimethylsulfoxide (DMSO). At the end of the culture period media is removed, cells are isolated and messenger RNA prepared. The levels of secreted cytokines representing a panel of pro-inflammatory cytokines including but not restricted to monocyte chemoattractant protein-1 (MCP-1), tumor necrosis factor α (TNF-α), interleukin-1β, (IL-1β), interleukin-6 (IL-6) and interleukin-12 (Il-12) are determined in the media isolated from the cells using commercially available cytokine assay kits. The levels of gene expression for the mRNAs for a panel of pro-inflammatory cytokines including but not restricted to monocyte chemoattractant protein-1 (MCP-1), tumor necrosis factor α (TNF-α), interleukin-1β, (IL-1β), interleukin-6 (IL-6) and interleukin-12 (Il-12) are determined using real-time PCR. […] A similar study is also conducted in primary mouse macrophages and human umbilical vein endothelial cells.

[2] = system: gout patients with hyperuricemia; experiment: Open-label trial of arhalofenate in combination with febuxostat vs febuxostat alone: sUA reduction and flare prevention; format: in vivo, human
Experimental: Study Design: This was an open-label study to determine the sUA reduction and flare prevention with arhalofenate in combination with febuxostat and compared that with febuxostat alone in gout patients (per criteria of the American Rheumatism Association) with hyperuricemia when arhalofenate administered at 400 mg once daily orally for 2 weeks (Weeks 2-3) and then increased to 600 mg once daily orally for an additional 2 weeks (Weeks 4-5) in addition to 80 mg febuxostat once daily orally (Weeks 1-5). Patients with a recent history of an acute gout flare must have been symptom free for at least 1 week prior to screening.
All patients who met the screening criteria started a 2-week Run-in/Stabilization Phase at the same time as out-patient basis. During this phase, patients on existing urate lowering therapy were asked to discontinue their current therapy for the duration of the study. At the same time, patients also started colchicine 0.6 mg once daily as prophylaxis to prevent potential gout flares. Upon completing the Run-in/Stabilization Phase, patients were reassessed at Day −2 (Visit 2) to confirm the final eligibility for the Treatment Phase. The sUA at this visit must have been ≧8.0 mg/dL and ≦10 mg/dL to qualify for the Treatment Phase. In addition, all safety lab values must have met the eligibility criteria at this visit. Patients successfully meeting the eligibility criteria entered the study site for an in-clinic stay for a total of 37 consecutive days.
The Treatment Phase began on Day 1 and continued for 5 weeks until Day 35. The Treatment Phase consisted of 3 sequential drug dosing periods:
80 mg febuxostat orally once daily from Days 1 through 7 (Febuxostat Period).
80 mg febuxostat plus 400 mg arhalofenate orally once daily from Days 8 through 21 (Febuxostat plus 400 mg arhalofenate Period).
80 mg febuxostat plus 600 mg arhalofenate orally once daily from Days 22 through 35 (Febuxostat plus 600 mg arhalofenate Period).
In addition, all patients continued to receive 0.6 mg colchicine daily for gout flare prophylaxis.
Efficacy of febuxostat plus arhalofenate combination treatment was assessed by the proportion of patients achieving a sUA<6 mg/dL, <5 mg/dL, <4 mg/dL, and <3 mg/dL at Day 22 and Day 36. In addition, absolute and percent changes in sUA at Day 22 and Day 36 from baseline (Day 1) were also evaluated. Gout flares were captured as special interest event in this study. The incidence of gout flares, severity (as assessed either mild, moderate, or severe by the Principal Investigator), and duration (days) were compared between treatment periods.

gout patients = conditions: monotherapy at 40, 80, 120, 160 and 240 mg/day; cited from earlier work
[3] = Plasma concentration of (−)-halofenic acid during and after 30-day daily oral 400 mg arhalofenate; format: in vivo, human
Experimental: Methods used in relation to FIGS. 1-2 showing the pharmacokinetic profile of (−)-halofenic acid were as follows:
Plasma proteins in human plasma samples containing of (−)-halofenic acid, an internal standard (I.S.) and heparin as the anticoagulant were precipitated with acetonitrile. The samples were vortex mixed, centrifuged and an aliquot was analyzed by reversed phase high performance liquid chromatography using a Phenomenex Polar RP column maintained at 45° C. The mobile phase was nebulized using heated nitrogen in a Z-spray source/interface and the ionized compounds were detected using a tandem quadrupole mass spectrometer.
The plasma concentrations were rounded to the nearest one-tenth μg/mL before the calculations. Plasma samples with concentrations below the quantifiable limit of 1.0 μg/mL (BQL) were assigned values of zero.

[4] = Day 8, after one week of daily 80 mg febuxostat

In the case of `CC(=O)NCCOC(=O)[C@H](Oc1cccc(C(F)(F)F)c1)c1ccc(Cl)cc1` [arhalofenate, (−)-(R)-(4-chloro-phenyl)-(3-trifluoromethyl-phenoxy)-acetic acid 2-acetylamino-ethyl ester], the “Reduction in serum uric acid over time” value (healthy adult subjects) was “gradual reduction in serum uric acid over a period of time at all dose levels tested, and in a dose dependent manner”, the “Flares considered moderate in severity by the investigator” value ([1]; 400 mg daily) was 2 of 4 and the “Patients who reported flare during the Treatment Phase” value ([1]; 400 mg daily, FIG. 4) was 19.0%. For the same compound, the “Patients with flare that required medication (additional colchicine and/or NSAIDs)” value ([1]; 400 mg daily, FIG. 4) was 4.8%, the “Mean duration of Flares Requiring Treatment” value ([1]; 400 mg daily, FIG. 5) was 2.0 days and the “Mean duration of Total flares” value ([1]; 400 mg daily, FIG. 5) was 1.3 days. For the same compound, the Mean sUA absolute change from baseline (Day 1) ([1]; 400 mg daily) was -1.4 mg/dL, the “Mean sUA percent change from baseline (Day 1)” value ([1]; 400 mg daily) was −15.4% and the “Flares considered moderate in severity by the investigator” value ([1]; 600 mg daily) was 0 of 2. For the same compound, the “Patients who reported flare during the Treatment Phase” value ([1]; 600 mg daily, FIG. 4) was 4.3%, the “Patients with flare that required medication (additional colchicine and/or NSAIDs)” value ([1]; 600 mg daily, FIG. 4) was 4.3% and the “Mean duration of Flares Requiring Treatment” value ([1]; 600 mg daily, FIG. 5) was 1.0 days. The “Mean duration of Total flares” value ([1]; 600 mg daily, FIG. 5) was 1.0 days, the “Mean sUA absolute change from baseline (Day 1)” value ([1]; 600 mg daily) was -2.3 mg/dL and the “Mean sUA percent change from baseline (Day 1)” value ([1]; 600 mg daily) was −23%. For the same compound, the “Incidence of any flares (Total flare) and flares requiring treatment compared to placebo” value ([1]; monotherapy, FIG. 4) was “dose dependently reduced the incidence of any flares (Total flare) and flares requiring treatment compared to placebo”, the “Duration of all flares (any flares and flares requiring treatment)” value ([1]; monotherapy, FIG. 5) was “also reduced the duration of all flares” and the “Uptake of uric acid into 3T3-L1 adipocytes” value (murine 3T3-L1 adipocytes) was “prevents the uptake of uric acid into 3T3-L1 adipocytes”. For the same compound, the “Uric acid induced inflammatory response (expression and secretion of pro-inflammatory cytokines)” value (murine 3T3-L1 adipocytes) was “suppresses the uric acid induced inflammatory response”.

In the case of `Cc1nc(-c2ccc(OCC(C)C)c(C#N)c2)sc1C(=O)O` [febuxostat, 2-(3-cyano-4-isobutoxyphenyl)-4-methyl-1,3-thiazole-5-carboxylic acid], the “Patients who experienced gout flares” value ([2]; 1 week of febuxostat only period (80 mg), colchicine 0.6 mg background) was 2 patients, the “Patients who reached sUA <4 mg/dL” value [2, 4] was 9% and the “Patients who reached sUA <5 mg/dL” value [2, 4] was 55%. For the same compound, the “Patients who reached sUA target of <6 mg/dL” value [2, 4] was 100%, the “Patients who reported flare, adjusted by duration of treatment” value ([2]; febuxostat only period, FIG. 6) was 18.2 % patients/week and the “Mean duration of the gout flares” value ([2]; febuxostat only period, FIG. 7) was 6.5 days.

In the case of `O=c1[nH]cnc2c(CN3C[C@H](CO)[C@@H](O)C3)c[nH]c12` [Ulodesine, 7-(((3R,4R)-3-hydroxy-4-(hydroxymethyl)pyrrolidin-1-yl)methyl)-3H-pyrrolo[3,2-d]pyrimidin-4(5H)-one], the “Serum uric acid in gout patients” value (gout patients) is given as “rapidly and significantly reduced serum uric acid”.

With `O=C(O)C(Oc1cccc(C(F)(F)F)c1)c1ccc(Cl)cc1` (single isomer, unassigned; (-)) [(−)-halofenic acid, (−)-4-chlorophenyl-(3-trifluoromethylphenoxy)acetic acid] the “Half-life of (−)-halofenic acid in plasma” value ([3]; daily oral 400 mg arhalofenate for 30 days, FIGS. 1-2) was “a long half-life with sustained drug levels present for several days after the final dose” and the “Intraday plasma concentration profile” value ([3]; daily oral 400 mg arhalofenate, Day 15 and Day 30, FIG. 2) was “a relatively constant intraday plasma concentration”.

— patent US9060987B2, “Methods for treating gout flares” (CymaBay Therapeutics, Inc., priority 2011, dated 2015)
